We go through 35 compounds from patent publication US20050130232A1, “Methods of screening for compounds that modulate hormone receptor activity” (Allergan, Inc., priority 2001, published 2005).

Where no end group is shown, it is not given here. [ ]: non-standard residue; d: D form. hArg = N=C(N)NCCCC[C@H](N)C(=O)O

In one data set the test system is RXR receptors. Particulars: cited from earlier work.
Another data set has as its system RAR receptors. Particulars: cited from earlier work; for RAR isotype selectivity: in vitro binding assays.
Data set [1] deals with T1, RXR-associated protein kinase in Flag-RXR immunocomplexes (Homo sapiens, UniProt P19793).
T1 construct: expressed in transfected cells; host or cells: HEK 293
T1 sequence (P19793 1-462): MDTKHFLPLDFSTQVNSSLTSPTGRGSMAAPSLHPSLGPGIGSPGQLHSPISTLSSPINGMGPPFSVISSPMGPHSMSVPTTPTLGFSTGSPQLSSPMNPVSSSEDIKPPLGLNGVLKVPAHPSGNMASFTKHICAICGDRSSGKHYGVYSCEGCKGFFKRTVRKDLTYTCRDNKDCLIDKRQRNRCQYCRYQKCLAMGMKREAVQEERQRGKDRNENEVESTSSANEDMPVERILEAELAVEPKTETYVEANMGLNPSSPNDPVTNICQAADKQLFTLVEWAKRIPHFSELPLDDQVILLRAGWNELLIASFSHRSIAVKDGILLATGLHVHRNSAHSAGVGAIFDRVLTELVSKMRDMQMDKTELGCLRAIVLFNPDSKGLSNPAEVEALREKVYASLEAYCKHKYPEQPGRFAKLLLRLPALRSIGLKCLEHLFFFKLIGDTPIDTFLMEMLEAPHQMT
In words: In vitro kinase reaction with [γ-32P]ATP on Flag-RXR immunocomplexes from transfected HEK 293 cells. It is filed as cell-based. Particulars: transfected HEK 293 cells treated with ligand before anti-Flag immunoprecipitation. The text has this:
Total cell lysates were immunoprecipitated with anti-Flag antibody (M2). Aliquots of the immunocomplexes were used for the in vitro kinase reaction with [γ-^32P]ATP and separated on SDS-PAGE. Phosphorylated proteins were detected by autoradiography (top panel). Additional aliquots of the immunocomplexes were subjected to immunoblotting with polyclonal anti-RXR antisera (D20; bottom panel). (B) Phosphoamino acid analysis. Flag-RXR and the 160-kDa protein were phosphorylated in vitro and separated on SDS-PAGE as described above, then transferred onto PVDF membrane, detected by autoradiography, and cut out for hydrolysis with acid (6 N HCl). The phosphorylated amino acids and standards (P-Ser, P-Thr, and P-Tyr) were separated by thin-layer chromatography. Positions of the standards P-Ser, P-Thr, and P-Tyr were visualized by ninhydrin staining and are indicated by arrows. (C) In vivo metabolic labeling of transfected HEK 293 cells. […] Cells were washed with phosphate-free medium and starved for 90 minutes before incubation with [^32P]orthophosphate for another 4 hours. […] Total cell lysates were immunoprecipitated with anti-Flag antibody (M2) and subjected to separation on SDS-PAGE. Phosphorylated proteins were detected by autoradiography.
Total cell lysates were subjected to immunoprecipitation, and the in vitro kinase reaction performed as described above.
Cell lysis, immunoprecipitation with anti-Flag (M2), in vitro kinase assay, and detection of the phosphorylated proteins in the RXRα immunoprecipitated complexes were performed as described above.
Cell culture and transient transfection was performed as follows. HEK 293 cells were grown in Dulbecco's modified Eagle's medium (DMEM) supplemented with 10% fetal bovine serum (FBS), 100U of penicillin per ml and 10 μg of streptomycion per ml at 37° C. in 5% CO2. For expression of RXR protein, 100-mm dishes of cells were transfected at 50% confluence with 2 μg of plasmid DNA using Lipofectamine (Life Technologies) as specified by the manufacturer. At 32 hours post-transfection, cells were starved by incubating in DMEM medium with 2.5% charcoal-treated fetal bovine serum or 0.1-0.5% calf bovine serum overnight, and then treated with indicated agents. Cells were harvested by aspirating medium, rinsing in phosphate buffered saline (PBS), and extracting into Lysis Buffer (30 mM Tris-HCL, pH 7.4, 0.5% Nonidet P-40, 10% glycerol, 150 mM NaCl, 1 mM EDTA, 40 mM NaF, 1 mM sodium orthovanadate, and 0.5 mM phenylmethylsufonyl fluoride, and 1× protease inhibitors, (Roche Diagnostics) or 1×SDS Sample Buffer.
Immunoprecipitation was performed essentially as follows. Cells were solubilized in cold Lysis Buffer and subsequently clarified by centrifugation at 20,000 g for 10 minutes at 4° C. Immunoprecipitations were performed at 4° C. by incubating clarified cell extracts with the indicated antibodies (2 μg/ml) and protein A/G-agarose beads (1:30 dilution of a 50% suspension) on a rotating wheel for 4 hours to overnight. Agarose beads were pelleted by low speed centrifugation and washed extensively with ice-cold Lysis Buffer.
Protein kinase assays were performed as follows. Immunoprecipitated complexes were resuspended in 15 μl of Kinase Assay Buffer (30 mM Tris-HCl, pH 7.4 and 10 mM MgCl2). Kinase reactions were initiated by addition of 2.5 μl of 50 μM [γ-^32P]ATP (10 μCi) to the immune-complexes, followed by incubation at 25° C. with occasional shaking for 20 minutes, and terminated by addition of 6 μl 4×SDS Sample Buffer. After heating at 100° C. for 5 minutes, the reaction mixtures were resolved by 4-12% SDS-PAGE. Incorporation of ^32P into RXR or other proteins was determined by autoradiography.

The next data set relates to protein kinase A. The settings on record: selected protein kinase A synthetic substrates; cited from earlier work.
Data set [2] deals with Flag-tagged PH-RXRα (Flag tag, pleckstrin homology domain of human insulin receptor substrate-1, human RXRα) (UniProt P35568).

For `CC1=C(/C=C/C(C)=C\C=C\C(C)=C\C(=O)O)C(C)(C)CCC1` [9-cis RA, 9-cis-retinoic acid], the “binding to RXR receptors” value in the data set with RXR receptors is “RXR receptor ligand”. Further, the “binding to RAR receptors” value in the data set with RAR receptors was “binds to the RAR receptors”.

Turning to `CC1(C)CCC(C)(C)c2cc(C3(c4ccc(C(=O)O)cn4)CC3)ccc21` [AGN195029], in data set [1], the “phosphorylation of RXR and 160 kDa protein in Flag-RXR immunocomplexes” value (shortened to “phosphorylation”) is “contained a kinase phosphorylated RXR and a 160 kDa protein”.

As to `CC1(C)CCC(C)(C)c2c1cc(C(=O)Nc1cc(F)c(C(=O)O)c(F)c1)c(O)c2Cl` [AGN195183], in data set [1], the “phosphorylation” value was “not stimulated”.

`CC[C@]1(c2ccc3c(c2)C(C)(C)CCC3(C)C)C[C@H]1/C=C/C(C)=C/C(=O)O` [AGN195184]: in data set [1], the “phosphorylation” value is “contained a kinase phosphorylated RXR and a 160 kDa protein”.

For the compound `CCC[C@]1(c2ccc3c(c2)C(C)(C)CCC3(C)C)C[C@H]1/C=C/C(C)=C/C(=O)O` [AGN195203], the “phosphorylation” value in data set [1] was “contained a kinase phosphorylated RXR and a 160 kDa protein”.

Take `CCCCCCOc1c(\C(C)=C/C=C/C(C)=C/C(=O)O)cc(C(C)C)cc1C(C)C` [AGN195393]: the “phosphorylation” value in data set [1] is recorded as “neither RXR nor the 160 kDa protein was phosphorylated”.

As to `CC1(C)CCSc2ccc(C#Cc3ccc(C(=O)O)cn3)cc21` [AGN 190299], in the data set with RAR receptors, the RAR isotype selectivity entry was “RARβ/γ selective”.

Consider `CC1=C(/C=C/C(C)=C/C=C/C(C)=C/C(=O)O)C(C)(C)CCC1` [ATRA, All trans-retinoic acid], for which the “binding to RXR receptors” value in the data set on RXR receptors was “does not bind the RXR receptors”. Moreover, the “binding to RAR receptors” value in the data set on RAR receptors was “physiological hormone for the RAR receptors”.

Take `CC1(C)CCC(C)(C)c2cc(NC(=O)c3ccc(C(=O)O)cc3)ccc21` [Am 80]: in the data set on RAR receptors, the RAR isotype selectivity entry is “RARα-selective”.

`CC1(C)CCC(C)(C)c2cc(C(=O)Nc3ccc(C(=O)O)cc3)ccc21` [Am 580]: the RAR isotype selectivity entry in the data set with RAR receptors is “RARα-selective”.

Take `Cc1cc2c(cc1C1(c3ccc(C(=O)O)cn3)CC1)C(C)(C)CCC2(C)C` [LG 100268]: the “binding to RXR receptors” value in the data set on RXR receptors is on record as “binding to all three RXRs”. For the same compound, the “binding to RAR receptors” value in the data set with RAR receptors is reported as “not to any of the RAR isotypes”.

In the case of `CC(C)=C(c1ccc(C(=O)O)cc1)c1ccc2c(c1)C(C)(C)CCC2(C)C` [SR 11217], the “binding to RXR receptors” value in the data set with RXR receptors is recorded as “binding to all three RXRs”. Besides, the “binding to RAR receptors” value with RAR receptors was “not to any of the RAR isotypes”.

`CC1(C)CCC(C)(C)c2cc(C3(c4ccc(C(=O)O)cc4)OCCO3)ccc21` [SR 11237]: the “binding to RXR receptors” value in the data set with RXR receptors was “binding to all three RXRs”. Besides, in the data set with RAR receptors, the “binding to RAR receptors” value is “not to any of the RAR isotypes”.

For the compound `C/C(=C\c1ccc(C(=O)O)cc1)c1ccc2c(c1)C(C)(C)CCC2(C)C` [TTNPB], the “phosphorylation” value in data set [1] is given as “neither RXR nor the 160 kDa protein was phosphorylated”. Moreover, the “binding to RXR receptors” value in the data set with RXR receptors was “not RXRs”. Also, the “binding to RAR receptors” value in the data set on RAR receptors is reported as “binds RARs”.

A word on the Km: it is the concentration of substrate that gives half-maximal velocity. Regarding “A R T K R S G S V (ARTKRSGSV) [SEQ ID NO.: 98, protein kinase A synthetic substrate]”, the Km in the data set with protein kinase A is 10 µM.

Consider “G R G L S L S R (GRGLSLSR) [SEQ ID NO.: 90, protein kinase A synthetic substrate]”, for which the Km with protein kinase A was 240 µM.

Take “L H R A S L G (LHRASLG) [SEQ ID NO.: 101, protein kinase A synthetic substrate]”: the Km with protein kinase A was 415 µM.

In the case of “L R K A S L G (LRKASLG) [SEQ ID NO.: 100, protein kinase A synthetic substrate]”, the Km in the data set on protein kinase A was 260 µM.

In the case of “L R R A S L (LRRASL) [SEQ ID NO.: 96, protein kinase A synthetic substrate]”, the Km in the data set on protein kinase A is 57 µM.

“L R R A S V A (LRRASVA) [SEQ ID NO.: 91, protein kinase A synthetic substrate]”: the Km with protein kinase A is above 10 µM.

“L X^aR A S L G (L[hArg]RASLG) [SEQ ID NO.: 102, protein kinase A synthetic substrate, X = homoarginine]”: the Michaelis constant (Km) with protein kinase A is 350 µM.

LRRASLG [SEQ ID NO.: 94, L R R A S L G]: the Michaelis-Menten constant (Km) in the data set with protein kinase A is 16 µM.

Consider “R R A S F (RRASF) [SEQ ID NO.: 111, protein kinase A synthetic substrate]”, for which the Michaelis-Menten constant (Km) in the data set with protein kinase A is 13 µM.

On to “R R A S I (RRASI) [SEQ ID NO.: 112, protein kinase A synthetic substrate]”, for which the Km in the data set with protein kinase A was 7 µM.

In the case of “R R A S L G (RRASLG) [SEQ ID NO.: 95, protein kinase A synthetic substrate]”, in the data set on protein kinase A, the Km was 26 µM.

With “R R A S V (RRASV) [SEQ ID NO.: 93, protein kinase A synthetic substrate]”, in the data set on protein kinase A, the Michaelis-Menten constant (Km) is 24 µM.

Turning to “R R A S V A (RRASVA) [SEQ ID NO.: 92, protein kinase A synthetic substrate]”, the Km with protein kinase A is 20 µM.

For the compound “R T G R S G S V (RTGRSGSV) [SEQ ID NO.: 106, protein kinase A synthetic substrate]”, in the data set with protein kinase A, the Km was 140 µM.

On to “R T K R S G S V (RTKRSGSV) [SEQ ID NO.: 99, protein kinase A synthetic substrate]”, for which, in the data set on protein kinase A, the Km was 21 µM.

“V L Q A R R G S S I P Q (VLQARRGSSIPQ) [SEQ ID NO.: 104, protein kinase A synthetic substrate]”: in the data set on protein kinase A, the Km was 11 µM.

Turning to “V L Q A R R G T S I P Q (VLQARRGTSIPQ) [SEQ ID NO.: 109, protein kinase A synthetic substrate]”, in the data set with protein kinase A, the Michaelis constant (Km) was 139 µM.

As to “V L Q R R R G S S I P Q (VLQRRRGSSIPQ) [SEQ ID NO.: 97, protein kinase A synthetic substrate]”, the Km with protein kinase A is 4 µM.

Turning to “V L Q R R R G T S I P Q (VLQRRRGTSIPQ) [SEQ ID NO.: 108, protein kinase A synthetic substrate]”, the Michaelis constant (Km) in the data set with protein kinase A is 39 µM.

“V L Q R R R P T S I P Q (VLQRRRPTSIPQ) [SEQ ID NO.: 110, protein kinase A synthetic substrate]”: the Michaelis constant (Km) in the data set on protein kinase A is 118 µM.

On to “catalytic subunit of murine protein kinase A (expressed from pFC-PKA, Stratagene)”, for which the “protein kinase A activity in anti-Flag immunoprecipitates (substrate SEQ ID NO: 59), with against without AGN194204” value in data set [2] is “Immunoprecipitates prepared with anti-Flag antibody showed a dramatic increase in the amount of protein kinase A activity”.
